From patent US6866995B1, “Method to enable assessment of growth and death of micro-organisms” (priority 1999, dated 2005)
Where two headings read alike, the source gives them in different places.

Key:
[1] = tested on: E. coli with plasmid pGFP+luc*; conditions: for death: incubation 5 min, 30° C., FIGS. 4 and 5 (plating and live/dead staining)
Protocol: (§1) One colony from a pure culture plate was inoculated in 5 ml of LB-medium with ampicillin (100 μg/ml) and grown at +37° C. in a shaker, 250 rpm, for about three hours. After that, the number of cells per milliliter was determined with flow cytometry by using fluorescent spherical latex particles as a reference. One million cells were then removed to an erlenmeyer with 50 ml of LB medium and ampicillin. The culture was grown over night in a shaker, 190 rpm, at room temperature to prevent the culture from growing into the stationary phase during the night. In the morning, the culture was transferred to and grown in a shaker, 330 rpm, until the stationary phase was reached or used after growth at +30° C. for about 1 h to study the influence of ethanol or serum complement as described below.
(§2) Ethanol (Aa, Primalco Oy) was diluted into pure water to obtain concentrations of […], 25, 10, 5, 1 and 0% of ethanol when 500 μl of said dilution was added to 500 μl of said culture in an eppendorf tube. The mixture was vortexed and incubated for 5 minutes before measuring fluorescence and luminescence. Live cells were again counted by plating and also by live/dead staining. In the live/dead protocol used the stain cyto 9 stains all cells whereas propidium iodide stains only the dead cells. After staining, cells are passed through a flow cytometer, with which dead and live cells can be differentiated and their proportion determined. (Virta et al. (1998) Appl. Environ. Microbiol. 64: 515-519.)
The influence of serum complement on the said recombinant E. coli strain was studied using an incubation time of 90 min as described for a different recombinant E. coli strain used in Virta et al. (1998) Appl. Environ. Microbiol. 64: 515-519.
Samples for plating were diluted 10^2 to 10^7 fold with 150 mM NaCl and plated onto L agar plates (L broth containing 1.6% agar). Colonies were counted after overnight incubation at 37° C.

[2] = tested on: E. coli with plasmid pGFP+luc*; conditions: with increased ethanol concentration, 5 min, FIG. 5
Protocol: as §1
as §2, with “In the live/dead protocol used the stain cyto 9 stains all cells whereas propidium iodide stains only the dead cells.” left out, “(Virta et al. (1998) Appl. Environ. Microbiol. 64: 515-519.)” left out

[3] = tested on: E. coli with plasmid pGFP+luc*; format: cell-based, E. coli strain MC1061; conditions: 5 min
Protocol: Environ. Microbiol. 64: 515-519.
The measurements were done with a combined fluoro- and luminometer, Fluoroscan Ascent FL, provided by Labsystems Ltd. (Helsinki, Finland). Cell growth was simultaneously followed with a flow cytometer.
For the measurements, 100 μl of bacterial culture was pipetted into the microtiter plate wells. Fluorescence was measured using 485 nm for excitation and 510 nm for emission. Measuring time was 20 ms. After the fluorescence measurement 100 μl of luciferin in 0.1 M citric acid-sodium citrate buffer (pH 5.0) was dispensed into the wells and the plate was shaken for two minutes (shaking diameter 1 mm, 1 020 rpm), after which luminescence was recorded with a measuring time of 1000 ms.

With `CCO` [ethanol, Ethanol] the death ([1]; ethanol concentrations above 10%) was “very pronounced significance”, the death ([1]; ethanol concentrations below 5%) was “more or less unsignificant” and the “live cell count according to plate count” value ([1]; with increased ethanol concentration, 5 min, FIG. 4) was “dramatically decreasing”. For the same compound, the “percentage of live cells according to the live/dead staining” value [2] was “dramatically decreasing”, the fluorescence ([3]; whatever the ethanol concentration (0-50%), FIG. 2) was “essentially constant” and the luminescence ([3]; with increased ethanol concentration, FIG. 3) was “dropped dramatically”.
